Active and inactive are the calls of the source.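 Rule for the calls: active = CC50 of 24 µM or less, the dose killing half of Huh-7.5 liver cells, showing toxicity to them; inactive = no cytotoxicity, CC50 exceeds 24 µM.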
Test system: Huh-7.5 viability, XTT absorbance
Assay: cytotoxicity in Huh-7.5 cells, late-stage follow-up, cytotoxicity control for HCV core dimerization inhibitor project, cell-based, absorbance (AID 485280)

Structure (SMILES)	CC50
COc1ccc(NC(=O)CN(C)C(=O)c2cc3c(s2)CCC3)cc1	123 µM (inactive)
CCN(CC(=O)Nc1c(F)cccc1F)C(=O)/C=C/c1ccc2ccccc2n1	148 µM (inactive)
CCCCCC#CCC#CCC#CCC#CCCCC(=O)O	179 µM (inactive)
Cc1ccc(Cc2c(C)nc3nc(SCC(=O)NCCCN4CCCCCC4)nn3c2C)cc1	27.4 µM (inactive)
COCCN(C(=O)COC(=O)c1cc2c(s1)CCC2)c1c(N)n(Cc2ccccc2)c(=O)[nH]c1=O	141 µM (inactive)
Cc1ccccc1N1C(=O)/C(=C/c2ccco2)C(=O)NC1=S	143 µM (inactive)
O=C(/C=C/c1ccc(Br)o1)OCc1nc2ccsc2c(=O)[nH]1	163 µM (inactive)

Source: PubChem BioAssay AID485280 (The Scripps Research Institute Molecular Screening Center, 2010)
